This note sets out measurements from US20250154193A1, “STEROID COMPOUND, AND PREPARATION METHOD THEREFOR AND APPLICATION THEREOF” (CHOLESGEN (SHANGHAI) CO., LTD., priority 2022, published 2025).

What is called IC50 is the concentration that inhibits the measured activity by half.

This test relates to SREBP pathway. The test is described as follows: SREBP luciferase reporter gene system (SRE-luciferase assay) in Huh-7/SRE-Luc cells. In kind it is cell-based. Conditions: Homo sapiens, sterol-deficient medium, compound treatment 16 hours, luciferase/GFP ratio. The protocol: Huh-7/SRE-Luc, a human hepatocellular carcinoma cell line, was grown in a culture medium containing DMEM, 10% fetal bovine serum, 100 units/mL penicillin, 100 µg/mL streptomycin, and 200 μg/mL G418.
The Huh-7/SRE-Luc cell line is a human hepatocellular carcinoma cell line Huh-7 stably expressing LDLR promoter-luciferase and green fluorescent protein (GFP). The LDLR promoter region contains a sterol regulatory element (SRE) that can effectively and sensitively respond to the regulation of the transcription factor SREBP. The GFP signal serves as an internal reference to indicate changes in cell number. Therefore, this cell line can be used to screen for active small molecules that regulate the SREBP signaling pathway. […] Cells were incubated in a sterol-deficient medium (5% lipoprotein-deficient serum, 2 μM Lovastatin, 10 μM mevalonate) and treated with corresponding concentrations of compounds for 16 hours. After compound treatment, the cells were lysed with lysis buffer (E397A, Promega), followed by the addition of luciferase substrate (E1500, Promega). The SRE-driven luciferase activity was measured using a BioTek Synergy HTX microplate reader (including but not limited to this type of instrument). The fluorescence intensity of enhanced green fluorescent protein (EGFP) was also measured using the BioTek microplate reader (including but not limited to this type of instrument) and used as an internal reference. The ratio of SRE-driven luciferase activity to GFP fluorescence intensity was used as an indicator of SREBP pathway activity. The test data of each test compound was analyzed using Prism software to obtain the IC50 parameter of the compound.
The inhibitory effect of the compounds of the present disclosure on the SREBP pathway was tested by the method of bioassay example 2. The concentration gradient of each compound was designed as 0.01, 0.03, 0.1, 0.3, 1.0, 3.0, and […], with DMSO as a vehicle control.
A general note: In a reporter assay the amount or activity of a reporter protein is the signal.
In the case of `C[C@H](CCCC(C)(C)O)[C@H]1CC[C@H]2[C@@H]3CC[C@H]4CC(C)(O)CC[C@]4(C)[C@H]3CC[C@]12C` (stereo partly drawn) [compound 307, 3-methylcholest-3,25-diol], the IC50 is 0.588 µM.
The result for `C[C@H](CCCC(C)(C)O)[C@H]1CC[C@H]2[C@@H]3CC[C@H]4[C@@H](O)[C@@H](OC(=O)CO)CC[C@]4(C)[C@H]3CC[C@]12C` [compound 313, (1R,3aS,3bS,5aR,6R,7S,9aR,9bS,11aR)-6-hydroxy-1-[(2R)-6-hydroxy-6-methylheptan-2-yl]-9a,11a-dimethylhexadecahydro-1H-cyclopenta[1,2-i]phenanthren-7-yl hydroxyacetate] reads 0.07 µM; that for `C[C@H](CCCC(C)(C)O)[C@H]1CC[C@H]2[C@@H]3C[C@H](O)[C@H]4C[C@@H](O)CC[C@]4(C)[C@H]3CC[C@]12C` [compound 240, cholest-30,6a,25-triol], 0.67 µM; that for `C[C@H](CCCC(O)C(F)(F)F)[C@H]1CC[C@H]2[C@@H]3CC[C@H]4[C@@H](O)[C@@H](O)CC[C@]4(C)[C@H]3CC[C@]12C` (stereo partly drawn) [compound 232, 24-(2,2,2-trifluoro-1-hydroxyethyl)-5α-cholan-3β,4β-diol], 0.084 µM.
The result for `COC(=O)C1CC[C@@]2(C)[C@@H](CC[C@@H]3[C@@H]2CC[C@]2(C)[C@@H]([C@H](C)CCCC(C)(C)O)CC[C@@H]32)C1` (stereo partly drawn) [compound 321, methyl 25-hydroxy-5α-cholest-3-carboxylate] reads 7.2 µM; that for `C[C@H](CCCC(C)(C)O)[C@H]1CC[C@H]2[C@@H]3C[C@H](O)[C@H]4[C@@H](O)[C@@H](O)CC[C@]4(C)[C@H]3CC[C@]12C` [compound 272, 5α-cholest-3β,4P,6α,25-tetraol], 20.1 µM.
With `C[C@H](CCCC(C)(C)O)[C@H]1CC[C@H]2[C@@H]3CC[C@H]4[C@@H](N)[C@@H](O)CC[C@]4(C)[C@H]3CC[C@]12C` [compound 303, 4-amino-5α-cholest-3β,25-diol], the IC50 amounted to 7.08 µM.
The result for `C[C@H](CCCC(C)(C)O)[C@H]1CC[C@H]2[C@@H]3CC(O)[C@H]4[C@@H](O)[C@@H](O)CC[C@]4(C)[C@H]3CC[C@]12C` (stereo partly drawn) [compound 244, cholest-3β,4p,6,25-tetraol] reads 3.76 µM; that for `C[C@H](CCCC(O)c1c(F)cccc1F)[C@H]1CC[C@H]2[C@@H]3C(N)C[C@H]4[C@@H](O)[C@@H](O)CC[C@]4(C)[C@H]3CC[C@]12C` (stereo partly drawn) [compound 299, 7-amino-24-[(2,6-difluorophenyl)(hydroxy)methyl]-5α-cholan-3P,4β-diol], 4.83 µM; that for `C[C@H](CCCC(O)c1ccccc1F)[C@H]1CC[C@H]2[C@@H]3CC[C@H]4[C@@H](O)[C@@H](O)CC[C@]4(C)[C@H]3CC[C@]12C` (stereo partly drawn) [compound 234], 0.36 µM.
With `C[C@H](CCCC(C)(C)O)[C@H]1CC[C@H]2[C@@H]3CC[C@H]4CC(C(=O)O)CC[C@]4(C)[C@H]3CC[C@]12C` (stereo partly drawn) [compound 309, 25-hydroxy-5α-cholest-3-carboxylic acid] the figure was 8.96 µM.
Consider `C[C@H](CCCC(C)(C)O)[C@H]1CC[C@H]2[C@@H]3CC(O)C4(F)C[C@@H](O)CC[C@]4(C)[C@H]3CC[C@]12C` (stereo partly drawn) [compound 226], for which the IC50 came out at 46.6 µM.
With `C[C@H](CCCC(C)(C)O)[C@H]1CC[C@H]2[C@@H]3C[C@@H](O)[C@H]4C[C@@H](O)CC[C@]4(C)[C@H]3CC[C@]12C` [compound 206, cholest-3β,6,25-triol], the IC50 is 0.464 µM.
For the molecule `C[C@H](CCCC(C)(C)O)[C@H]1CC[C@H]2[C@@H]3C(O)C[C@H]4C[C@@H](O)CC[C@]4(C)[C@H]3CC[C@]12C` (stereo partly drawn) [compound 210, 5α-cholest-3β,7,25-triol], the IC50 is 0.837 µM.
With `C[C@H](CCCC(C)(C)O)[C@H]1CC[C@H]2[C@@H]3CC[C@H]4CC(NS(C)(=O)=O)CC[C@]4(C)[C@H]3CC[C@]12C` (stereo partly drawn) [compound 310, N-[(1R,3aS,3bR,9aS,9bS,11aR)-1-[(2R)-6-hydroxy-6-methylheptan-2-yl]-9a,11a-dimethylhexadecahydro-1H-cyclopenta[1,2-a]phenanthrene-7-yl]methanesulfonamide] the figure was 1.41 µM; with `C[C@H](CCCC(C)(C)O)[C@H]1CC[C@H]2[C@@H]3CC[C@H]4C[C@@H](OC(=O)CCC(=O)O)CC[C@]4(C)[C@H]3CC[C@]12C` [compound 294, 4-{[(1R,3aS,3bR,5aS,7S,9aS,9bS,11aR)-1-[(2R)-6-hydroxy-6-methylheptan-2-yl]-9a,11a-dimethylhexadecahydro-1H-cyclopenta[1,2-a]phenanthren-7-yl]oxy}-4-oxobutanoic acid], 0.139 µM; with `C[C@H](CCCC(O)c1ccccc1F)[C@H]1CC[C@H]2[C@@H]3CC[C@H]4C[C@@H](O)CC[C@]4(C)[C@H]3CC[C@]12C` (stereo partly drawn) [compound 251, 24-[(2-fluorophenyl)(hydroxy)methyl]-5α-cholan-3β-ol], 0.321 µM.
With `C[C@H](CCCC(O)c1ccccc1C(F)(F)F)[C@H]1CC[C@H]2[C@@H]3CC[C@H]4[C@@H](O)[C@@H](O)CC[C@]4(C)[C@H]3CC[C@]12C` (stereo partly drawn) [compound 286, 24-{hydroxy[2-(trifluoromethyl)phenyl]methyl}-5α-cholan-30,40-diol] the figure was 0.575 µM; with `C[C@H](CCCC(C)(C)O)[C@H]1CC[C@H]2[C@@H]3CC[C@H]4C(F)(F)[C@@H](O)CC[C@]4(C)[C@H]3CC[C@]12C` [compound 291, (1R,3aS,3bS,5aR,7S,9aR,9bS,11aR)-6,6-difluoro-1-[(2R)-6-hydroxy-6-methylheptan-2-yl]-9a,11a-dimethylhexadecahydro-1H-cyclopenta[1,2-a]phenanthrene-7-ol], 0.065 µM.
On to `C[C@H](CCCC(C)(O)c1ccccc1F)[C@H]1CC[C@H]2[C@@H]3CC[C@H]4[C@@H](O)[C@@H](O)CC[C@]4(C)[C@H]3CC[C@]12C` (stereo partly drawn) [compound 278, 24-[1-(2-fluorophenyl)-1-hydroxyethyl]-5α-cholan-3β,4β-diol], for which the half-inhibitory concentration (IC50) amounted to 0.106 µM.
Consider `C[C@H](CCC[C@H](O)c1ccccc1F)[C@H]1CC[C@H]2[C@@H]3CC[C@H]4[C@@H](O)[C@@H](O)CC[C@]4(C)[C@H]3CC[C@]12C` (single isomer, unassigned) [compound 280, 24-[R-(2-fluorophenyl)(hydroxy)methyl]-5α-cholan-30,40-diol or 24-[S-(2-fluorophenyl)(hydroxy)methyl]-5α-cholan-30,40-diol], for which the IC50 turned out to be 0.118 µM.
In the case of `C[C@H](CCCC(C)(C)O)[C@H]1CC[C@H]2[C@@H]3CCC4(O)C(=O)[C@@H](O)CC[C@]4(C)[C@H]3CC[C@]12C` (stereo partly drawn) [compound 276, 3P,5,25-trihydroxycholest-4-one], the IC50 was 0.522 µM.
The result for `C[C@H](CCCC(C)(C)O)[C@H]1CC[C@H]2[C@@H]3CC[C@H]4C[C@@H](OC(=O)CO)CC[C@]4(C)[C@H]3CC[C@]12C` [compound 292, (1R,3aS,3bR,5aS,7S,9aS,9bS,11aR)-1-[(2R)-6-hydroxy-6-methylheptan-2-yl]-9a,11a-dimethylhexadecahydro-1H-cyclopenta[1,2-i]phenanthren-7-yl hydroxyacetate] reads 0.171 µM; that for `CC(O)CCC[C@@H](C)[C@H]1CC[C@H]2[C@@H]3CC[C@H]4[C@@H](O)[C@@H](O)CC[C@]4(C)[C@H]3CC[C@]12C` (stereo partly drawn) [compound 304, 24-(1-hydroxyethyl)-5α-cholan-3β,4β-diol], 0.173 µM.
For `COC1C[C@H]2[C@@H]3CC[C@H]([C@H](C)CCCC(C)(C)O)[C@@]3(C)CC[C@@H]2[C@@]2(C)CC[C@H](O)CC12O` (stereo partly drawn) [compound 208, 6-methoxycholest-3β,5,25-triol], the IC50 was 1.93 µM.
Regarding `C[C@H](CCCC(C)(C)O)[C@H]1CC[C@@]2(C)[C@@H]3C(O)C[C@H]4C(C)(C)[C@@H](O)CC[C@]4(C)[C@H]3CC[C@]12C` (stereo partly drawn) [compound 237, (1R,3aS,5aR,7S,9aR,11aR)-1-[(2R)-6-hydroxy-6-methylheptan-2-yl]-3a,6,6,9a,11a-pentamethylhexadecahydro-1H-cyclopenta[1,2-α]phenanthrene-4,7-diol], the concentration for half-maximal inhibition (IC50) turned out to be 7.04 µM.
As for `CCC(O)CCC[C@@H](C)[C@H]1CC[C@H]2C3CC[C@H]4C[C@@H](O)CC[C@]4(C)C3CC[C@]12C` (stereo partly drawn) [compound 211, (1R,3aS,5aS,7S,9aS,11aR)-1-[(2R)-6-hydroxyoctan-2-yl]-3a,9a,11a-trimethylhexadecahydro-1H-cyclopenta[1,2-α]phenanthren-7-ol], the IC50 is 0.395 µM.
